Reference: patent publication US8349864B2, “Pyrano [3,2-C] pyridones and related heterocyclic compounds as pharmaceutical agents for treating disorders responsive to apoptosis, antiproliferation or vascular disruption, and the use thereof” (New Mexico Technical Research Foundation, priority 2009, dated 2013)

Assays:
MCF-7 = assay: MTT cell viability assay, MCF-7 cells; type: cell-based; settings: Homo sapiens, MCF7, 48 h treatment, ± SD, two experiments, 8 replicates
HeLa = assay: MTT cell viability assay, HeLa cells; type: cell-based; settings: Homo sapiens, 48 h treatment, ± SD, two experiments, 8 replicates
tubulin = assay: In vitro tubulin polymerization (fluorescence); type: biochemical; settings: relative to 0.05% DMSO control
From the text: To obtain further support for the proposed antitubulin mechanism of action for our heterocycles, we assessed the effect of pyranoquinolones on in vitro tubulin polymerization. In this assay microtubule formation is monitored by the increase in fluorescence intensity of the reaction mixture.
FIG. 4 illustrates the effect of our compounds on in vitro tubulin polymerization.

Jurkat cells [1] = assay: Flow cytometric annexin-V/propidium iodide apoptosis assay; type: cell-based, human; settings: 5 μM, 36 h
Experimental: Since many clinically used anticancer agents induce apoptosis in cancer cells, we tested the pyranopyridone analogues for their ability to induce apoptosis in Jurkat (model for human T-cell leukemia) cells using the flow cytometric annexin-V/propidium iodide assay (FIG. 1).
FIG. 1 illustrates induction of apoptosis in Jurkat cells treated for 36 h with DMSO control, colchicine (5 μM) and selected pyridone library analogues (5 μM) in the flow cytometric annexin-V/propidium iodide assay. Error bars represent data

Jurkat cells [2] = assay: DNA laddering assay; type: cell-based, human; settings: 36 h, 1.5% agarose gel
Experimental: Since endonuclease-mediated cleavage of nuclear DNA resulting in formation of oligonucleosomal DNA fragments (180-200 base pairs long) is a hallmark of apoptosis in many cell types, apoptosis was further investigated with the DNA laddering assay (FIG. 2). Jurkat cells were treated with DMSO (lane A), analogues 40 and 41 (lanes B and C), and paclitaxel (lane D) for 36 h. After that the cellular DNA was isolated and electrophoresed in a 1.5% agarose gel. […] No laddering was observed when the cells were treated with DMSO control.
FIG. 2 illustrates DNA laddering in Jurkat cells after 36 h of treatment. (A) DMSO control, (B) 40 at 1.5 μM, (C) 41 at 1.5 μM, (D) paclitaxel at 0.4 μM, and (E) Molecular weight marker (KB).

Jurkat cells [3] = assay: Flow cytometric cell cycle analysis (Vybrant Orange staining); type: cell-based, human; settings: for cell cycle arrest: Jurkat cell line, flow cytometric cell cycle analysis; for % relative DNA content G0/G1 / % relative DNA content G2/M / % relative DNA content S: Jurkat, 1 μM, 24 h, ± SD
From the text: Our libraries of compounds exert their antiproliferative properties through inhibition of tubulin dynamics, thereby inducing mitotic arrest and initiating apoptosis in cancer cells. […] This effect is characteristic of antimitotic agents disrupting microtubule assembly.

Jurkat cells [4] = assay: Light microscopy of morphological changes; type: cell-based, human; settings: 1 μM, 2 h
Experimental: Morphological changes of cells treated with potent analogues can be visually observed with light microscopy (FIG. 3).
FIG. 3 illustrates light microscopy pictures. Treatment of Jurkat cells with 40 (C) and 41 (D) for 2 hours induces formation of finger-like extensions (black arrows) and shriveling (white arrows). 0.1% DMSO (A) and a known anticancer agent (B) were used as controls. All compounds are used at 1 μM. The scale bar indicates 40 μm.

Row | Structure (SMILES) | GI50 (MCF-7) [nM] | GI50 (HeLa) [nM] | other results
1 | Cn1c(=O)c2c(c3ccccc31)OC(N)=C(C#N)C2c1cc(Br)c(O)c(Br)c1 (stereo not shown) [Compound 39, 2-Amino-4-(3,5-dibromo-4-hydroxyphenyl)-6-methyl-5-oxo-5,6-dihydro-4H-pyrano[3,2-c]quinoline-3-carbonitrile] | 430 ± 10 | 270 ± 20 | 
2 | COc1cc(C2C(C#N)=C(N)Oc3c2c(=O)n(C)c2ccccc32)cc(Br)c1OC(C)=O (stereo not shown) [Compound 4, 4-(2-Amino-3-cyano-6-methyl-5-oxo-5,6-dihydro-4H-pyrano[3,2-c]quinolin-4-yl)-2-bromo-6-methoxyphenyl acetate] | 25 ± 60 | 180 ± 20 | 
3 | COc1cc(C2C(C#N)=C(N)Oc3c2c(=O)n(C)c2ccccc32)cc([N+](=O)[O-])c1O (stereo not shown) [Compound 25, 2-Amino-4-(4-hydroxy-3-methoxy-5-nitrophenyl)-6-methyl-5-oxo-5,6-dihydro-4H-pyrano[3,2-c]quinoline-3-carbonitrile] | 710 ± 120 | 630 ± 20 | 
4 | Cn1c(=O)c2c(c3ccccc31)OC(N)=C(C#N)C2c1ccc(F)c(Br)c1 (stereo not shown) [Compound 38, 2-Amino-4-(3-bromo-4-fluorophenyl)-6-methyl-5-oxo-5,6-dihydro-4H-pyrano[3,2-c]quinoline-3-carbonitrile] | 810 ± 80 | 270 ± 30 | 
5 | COc1cc([C@@H]2c3cc4c(cc3[C@H](O)[C@H]3COC(=O)[C@H]23)OCO4)cc(OC)c1OC [podophyllotoxin, reference compound] |  |  | effect on in vitro tubulin polymerization (tubulin; 25 μM): completely suppress tubulin polymerization
6 | COc1cc(C2C(C#N)=C(N)Oc3c2c(=O)n(C)c2ccccc32)cc(OC)c1OC (stereo not shown) [Compound 22, 2-Amino-6-methyl-5-oxo-4-(3,4,5-trimethoxyphenyl)-5,6-dihydro-4H-pyrano[3,2-c]quinoline-3-carbonitrile] | 1000 ± 300 | 240 ± 20 | 
7 | Cc1cc2c(c(=O)n1C)C(c1ccc(Cl)c(Cl)c1)C(C#N)=C(N)O2 (stereo not shown) [Compound 15, 2-Amino-4-(3,4-dichlorophenyl)-6,7-dimethyl-5-oxo-5,6-dihydro-4H-pyrano[3,2-c]pyridine-3-carbonitrile] |  | 18300 ± 2900 | induction of apoptosis in Jurkat cells (Jurkat cells [1]): do not induce apoptosis
8 | COc1ccc(CCn2c(C)cc3c(c2=O)C(c2cc(OC)c(OC)c(OC)c2)C(C#N)=C(N)O3)cc1OC (stereo not shown) [Compound 20, 2-Amino-6-(3,4-dimethoxyphenethyl)-7-methyl-5-oxo-4-(3,4,5-trimethoxyphenyl)-5,6-dihydro-4H-pyrano[3,2-c]pyridine-3-carbonitrile] |  | 22700 ± 6400 | induction of apoptosis in Jurkat cells (Jurkat cells [1]): do not induce apoptosis
9 | Cn1c(=O)c2c(c3ccccc31)OC(N)=C(C#N)C2c1cc(Br)cc(Br)c1 (stereo not shown) [Compound 42, 2-Amino-4-(3,5-dibromophenyl)-6-methyl-5-oxo-5,6-dihydro-4H-pyrano[3,2-c]quinoline-3-carbonitrile] | 75 ± 7 | 77 ± 6 | 
10 | CCOc1c(Br)cc(C2C(C#N)=C(N)Oc3cc(C)n(C)c(=O)c32)cc1OC (stereo not shown) [Compound 10, 2-Amino-4-(3-bromo-4-ethoxy-5-methoxyphenyl)-6,7-dimethyl-5-oxo-5,6-dihydro-4H-pyrano[3,2-c]pyridine-3-carbonitrile] |  | 1100 ± 800 | 
11 | CC(=O)O[C@H]1C(=O)[C@@]2(C)[C@H]([C@H](OC(=O)c3ccccc3)[C@]3(O)C[C@H](OC(=O)[C@H](O)[C@@H](NC(=O)c4ccccc4)c4ccccc4)C(C)=C1C3(C)C)[C@]1(OC(C)=O)CO[C@@H]1C[C@@H]2O [paclitaxel, reference compound] |  |  | DNA laddering in Jurkat cells (Jurkat cells [2]; 0.4 μM): characteristic ladder pattern was obtained; effect on in vitro tubulin polymerization (tubulin; 3 μM): promotes microtubule formation
12 | COc1cc(C2C(C#N)=C(N)Oc3c2c(=O)n(C)c2ccccc32)cc(Br)c1OC (stereo not shown) [Compound 41, 2-Amino-4-(3-bromo-4,5-dimethoxyphenyl)-6-methyl-5-oxo-5,6-dihydro-4H-pyrano[3,2-c]quinoline-3-carbonitrile] | 380 ± 30 | 14 ± 3 | cell cycle arrest (Jurkat cells [3]): pronounced cell cycle arrest in the G2/M phase; % relative DNA content G0/G1 (Jurkat cells [3]): 20 ± 2%; % relative DNA content G2/M (Jurkat cells [3]): 49 ± 2%; % relative DNA content S (Jurkat cells [3]): 28 ± 2%; morphological (phenotypic) changes of Jurkat cells (Jurkat cells [4]): formation of finger-like extensions and shriveling; DNA laddering in Jurkat cells (Jurkat cells [2]; 1.5 μM): characteristic ladder pattern was obtained; effect on in vitro tubulin polymerization (tubulin; 25 μM): completely suppress tubulin polymerization
13 | COc1ccc(C2C(C#N)=C(N)Oc3c2c(=O)n(C)c2ccccc32)cc1Br (stereo not shown) [Compound 43, 2-Amino-4-(3-bromo-4-methoxyphenyl)-6-methyl-5-oxo-5,6-dihydro-4H-pyrano[3,2-c]quinoline-3-carbonitrile] | 500 ± 100 | 410 ± 40 | 
14 | Cc1cc2c(c(=O)n1C)C(c1cccc(Br)c1)C(C#N)=C(N)O2 (stereo not shown) [Compound 14, 2-Amino-4-(3-bromophenyl)-6,7-dimethyl-5-oxo-5,6-dihydro-4H-pyrano[3,2-c]pyridine-3-carbonitrile] |  | 6500 ± 1300 | 
15 | COc1cc(C2C(C#N)=C(N)Oc3c2c(=O)n(C)c2ccccc32)cc(Br)c1O (stereo not shown) [Compound 40, 2-Amino-4-(3-bromo-4-hydroxy-5-methoxyphenyl)-6-methyl-5-oxo-5,6-dihydro-4H-pyrano[3,2-c]quinoline-3-carbonitrile] | 390 ± 160 | 47 ± 10 | cell cycle arrest (Jurkat cells [3]): pronounced cell cycle arrest in the G2/M phase; % relative DNA content G0/G1 (Jurkat cells [3]): 27 ± 3%; % relative DNA content G2/M (Jurkat cells [3]): 47 ± 3%; % relative DNA content S (Jurkat cells [3]): 22 ± 2%; morphological (phenotypic) changes of Jurkat cells (Jurkat cells [4]): formation of finger-like extensions and shriveling; DNA laddering in Jurkat cells (Jurkat cells [2]; 1.5 μM): characteristic ladder pattern was obtained; effect on in vitro tubulin polymerization (tubulin; 25 μM): completely suppress tubulin polymerization
16 | Cc1cc2c(c(=O)n1C)C(c1ccc(C(C)C)cc1)C(C#N)=C(N)O2 (stereo not shown) [Compound 17, 2-Amino-4-(4-isopropylphenyl)-6,7-dimethyl-5-oxo-5,6-dihydro-4H-pyrano[3,2-c]pyridine-3-carbonitrile] |  | > 100000 | induction of apoptosis in Jurkat cells (Jurkat cells [1]): do not induce apoptosis
17 | COc1cc(C2C(C#N)=C(N)Oc3cc(C)n(C)c(=O)c32)cc(Br)c1O (stereo not shown) [Compound 11, 2-Amino-4-(3-bromo-4-hydroxy-5-methoxyphenyl)-6,7-dimethyl-5-oxo-5,6-dihydro-4H-pyrano[3,2-c]pyridine-3-carbonitrile] |  | 2700 ± 1100 | 
18 | Cc1cc2c(c(=O)n1C)C(c1ccc(F)c(Br)c1)C(C#N)=C(N)O2 (stereo not shown) [Compound 13, 2-Amino-4-(3-bromo-4-fluorophenyl)-6,7-dimethyl-5-oxo-5,6-dihydro-4H-pyrano[3,2-c]pyridine-3-carbonitrile] |  | 6400 ± 1100 | 
19 | Cn1c(=O)c2c(c3ccccc31)OC(N)=C(C#N)C2c1cncc(Br)c1 (stereo not shown) [Compound 3, 2-Amino-4-(5-bromo-3-pyridinyl)-6-methyl-5-oxo-5,6-dihydro-4H-pyrano[3,2-c]quinoline-3-carbonitrile] | 15 ± 8 | 13 ± 3 | 
20 | Cc1cc2c(c(=O)n1C)C(c1ccc(N(C)C)c(Br)c1)C(C#N)=C(N)O2 (stereo not shown) [Compound 8, 2-Amino-4-[3-bromo-4-(dimethylamino)phenyl]-6,7-dimethyl-5-oxo-5,6-dihydro-4H-pyrano[3,2-c]pyridine-3-carbonitrile] |  | 330 ± 60 | 
21 | Cn1c(=O)c2c(c3ccccc31)OC(N)=C(C#N)C2c1cccc(Br)c1 (stereo not shown) [Compound 37, 2-Amino-4-(3-bromophenyl)-6-methyl-5-oxo-5,6-dihydro-4H-pyrano[3,2-c]quinoline-3-carbonitrile] | 3 ± 1 | 740 ± 30 | 
22 | COc1cc(C2C(C#N)=C(N)Oc3cc(C)n(C)c(=O)c32)cc(Br)c1OC (stereo not shown) [Compound 9, 2-Amino-4-(3-bromo-4,5-dimethoxyphenyl)-6,7-dimethyl-5-oxo-5,6-dihydro-4H-pyrano[3,2-c]pyridine-3-carbonitrile] |  | 580 ± 140 | 
23 | COc1cc(C2C(C#N)=C(N)Oc3cc(C)n(C)c(=O)c32)cc(Br)c1OC(C)=O (stereo not shown) [Compound 12, 4-(2-Amino-3-cyano-6,7-dimethyl-5-oxo-5,6-dihydro-4H-pyrano[3,2-c]pyridin-4-yl)-2-bromo-6-methoxyphenyl acetate] |  | 3500 ± 1300 | 
